The source of these data is patent US20200140826A1, “Maintenance and Expansion of Pancreatic Progenitor Cells” (AGENCY FOR SCIENCE, TECHNOLOGY AND RESEARCH, priority 2017, published 2020).

Assay [1] deals with cPP cells. The assay can be described thus: Omission of individual components from complete cPP culture medium on 3T3-J2 feeders (phase contrast, qRT-PCR). Conditions: for Effect of removing the component on cPP expansion, colony size and morphology: component individually omitted from complete medium, cPP cells cultured 6 days on 3T3-J2 feeders. It is filed as cell-based, human. The procedure:
Gentle cell dissociation reagent (STEMCELL Technologies, 07174) was used to passage cPP cells as aggregates that were then seeded at a 1:6 split ratio onto a layer of 3T3-J2 feeders (0.5×10^6 to 1×10^6 cells/cm^2) in medium composed of advanced DMEM/F12 (Thermo Fisher Scientific, 21634010), 2 mM L-glutamine (Thermo Fisher Scientific, 25030), 100 U/mL penicillin/streptomycin (Thermo Fisher Scientific, 15140122), 1× N2 supplement (Thermo Fisher Scientific, 17502-048), 1× B27 supplement (Thermo Fisher Scientific, 17504-044), 30 nM dexamethasone (STEMCELL Technologies, 72092), 50 ng/mL EGF (R&D Systems, 236-EG-200), 50 ng/mL FGF10 (Source Bioscience, ABC144), 3 μM RA (Sigma, R2625), 10 μM SB431542 (Calbiochem, 616464), and 1 μM DAPT (Sigma, D5942). If plating single cPP cells, complete medium was supplemented with 10 μM Y27632 for the first 48 hr (Sigma, Y0503). Medium was completely replenished every 2-3 days.
RNA was isolated from samples using an RNeasy mini kit (Qiagen, cat # 74104) and reverse transcribed to generate cDNA using a high-capacity reverse transcription kit and random hexamer primers (Applied Biosystems, 4368814,1 μg RNA per 20 μL reaction). Quantitative RT-PCR was carried out using SYBR Select Mastermix (Applied Biosystems, 4472908). Data were analyzed using the ΔΔCT method, and normalized to expression of the housekeeping gene TBP in each sample.
To establish the roles played by the growth factors and small molecules in our culture media, each was removed individually and the effect on differentiation and proliferation was assessed.
Background: In qPCR the cycle at which signal appears reflects the starting amount.

The test system of assay [2] is cPP cells. The assay can be described thus: Microbioreactor array (MBA) screening of cPP maintenance and proliferation. In kind it is cell-based, human. Conditions: relatively low concentration (1 μM) in cPP culture medium. As to the method:
Microbioreactor arrays were used to screen the effects of combinations of exogenous signaling molecules on cPP cells. MBAs provide combinatorial mixing of input factors, combined with continuous flow of culture media over culture chambers. MBAs were autoclaved and filled with sterile PBS, then coated (2-4 h, room temperature) with a single 1 mL injection of hESC-qualified matrigel at the manufacturer's recommended concentration. cPP cells in suspension in complete medium at 5×10^6/mL were then seeded in the MBA, giving a surface density of 50×10^6cells/cm^2. Cells were allowed to attach for a total of 20 h, with a media exchange performed every 6 h. […] Nuclear segmentation and quantification of nuclear intensities of PDX1 and SOX9 then proceeded similarly as previously described.
To quantify the effect of exogenous signaling molecules on the maintenance and expansion of cPP cells, this study used a microbioreactor array (MBA) screening platform to measure differentiation and proliferation. […] The study then used an image-segmentation algorithm to identify individual nuclei and quantify immunofluorescence staining for PDX1 and SOX9, thereby enabling the determination of the percentage of double-positive cells following exposure to different growth factor regimes. […]

As for `C[C@H](NC(=O)Cc1cc(F)cc(F)c1)C(=O)N[C@H](C(=O)OC(C)(C)C)c1ccccc1` [DAPT], the “Effect of removing the component on cPP expansion, colony size and morphology” value (from here on “Effect … colony size and morphology”) with cPP cells [1] is reported as “did not significantly affect colony size or morphology in the short term”. In addition, the “Effect of removing the component on viability” value in the assay on cPP cells [1] (component removed from the culture media over multiple passages) is on record as “noticeable loss of viability”. Moreover, the “Effect on proliferation of cPP cells” value with cPP cells [2] is “promotes proliferation of cPP cells”. As to `NC(=O)c1ccc(-c2nc(-c3ccc4c(c3)OCO4)c(-c3ccccn3)[nH]2)cc1` [SB431542], the “Effect … colony size and morphology” value in the assay on cPP cells [1] was “caused colonies to detach from the feeder layer”.

With “EGF: epidermal growth factor, growth factor in the cPP culture medium (50 ng/mL) (NSDSECPLSHDGYCLHDGVCMYIEALDKYACNCVVGYIGERCQYRDLKWWELR; Epidermal growth factor; UniProt P01133 971-1023, looked up)”, the “Effect … colony size and morphology” value in the assay on cPP cells [1] is on record as “prevented cPP expansion”.
